Data set [1] deals with T1, Chimera 5 (Cupriavidus necator, UniProt P14697, G33A/N37E/S38F/R40K/R41P/E46K, form not given).
T1 construct: gene phaB; AAR^Cn1 with segment G33-E46 replaced by A33-K46 of AAR^CAp (residues 36 and 44 conserved); E. coli BL21(DE3), IMAC
Kind of data set: initial rates and reaction progress curves, global fit. Type of data set: biochemical. The note with it: MOPS 50 mM, NaCl 5 mM, MgCl2 5 mM, pH 7.0, 30 °C. The source says: initial rates and reaction progress curves, global fit on Chimera 5

Data set [2] concerns the target T2, Chimera 1 backbone (Chimera 2, Chimera 3, Chimera 4) (Cupriavidus necator, UniProt P14697, N37E/S38A/R40K/R41P, form not given).
T2 construct: gene phaB; AAR^Cn1 with N37-R41 replaced by E37-P41 of AAR^CAp (E37, F38, K40, P41 told in text); E. coli BL21(DE3), IMAC
Put plainly: reaction progress curve analysis, absorbance […] nm. The note with it: AcAcCoA 2 mM, MOPS 50 mM, NaCl 5 mM, MgCl2 5 mM, pH 7.0, 30 °C, apparent kcat, read-out: Chimera3. The format is biochemical.

In data set [3] the target is T3, Chimera 1 backbone (Chimera 2, Chimera 3, Chimera 4) (Cupriavidus necator, UniProt P14697, N37E/S38F/R40K/R41G, form not given).
T3 construct: gene phaB; AAR^Cn1 with N37-R41 replaced by E37-P41 of AAR^CAp (E37, F38, K40, P41 told in text); E. coli BL21(DE3), IMAC
T3 sequence (P14697 whole entry N37E/S38F/R40K/R41G, form open): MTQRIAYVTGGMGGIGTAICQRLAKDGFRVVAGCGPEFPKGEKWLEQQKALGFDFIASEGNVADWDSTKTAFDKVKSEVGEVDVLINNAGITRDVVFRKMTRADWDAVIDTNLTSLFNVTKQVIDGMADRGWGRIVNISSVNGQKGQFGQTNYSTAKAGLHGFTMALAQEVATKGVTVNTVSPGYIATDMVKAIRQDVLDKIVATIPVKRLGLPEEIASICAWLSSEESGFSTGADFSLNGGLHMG
The data set is described as above. Type of data set: biochemical. The conditions noted are these: AcAcCoA 2 mM, MOPS 50 mM, NaCl 5 mM, MgCl2 5 mM, pH 7.0, 30 °C, apparent kcat, read-out: Chimera2.

In data set [4] the target is T4, Chimera 1 backbone (Chimera 2, Chimera 3, Chimera 4) (Cupriavidus necator, UniProt P14697, N37E/S38E/R40Q/R41P, form not given).
T4 construct: gene phaB; AAR^Cn1 with N37-R41 replaced by E37-P41 of AAR^CAp (E37, F38, K40, P41 told in text); E. coli BL21(DE3), IMAC
T4 sequence (P14697 whole entry N37E/S38E/R40Q/R41P, form open): as the sequence (P14697 whole entry N37E/S38F/R40K/R41G, form open) above, with F38E, K40Q, G41P counted along it
The description is as above. The format is biochemical. The conditions noted are these: AcAcCoA 2 mM, MOPS 50 mM, NaCl 5 mM, MgCl2 5 mM, pH 7.0, 30 °C, apparent kcat, read-out: Chimera4.

Data set [5] has as its target T1, Chimera 5. The data set is described as above. The format is biochemical. The note with it: AcAcCoA 2 mM; MOPS 50 mM, NaCl 5 mM, MgCl2 5 mM, pH 7.0, 30 °C; apparent kcat; read-out: Chimera5.
Substrate in data set [6]: NC(=O)C1=CN([C@@H]2O[C@H](COP(=O)(O)OP(=O)(O)OC[C@H]3O[C@@H](n4cnc5c(N)ncnc54)[C@H](O)[C@@H]3O)[C@@H](O)[C@H]2O)C=CC1
Kind of data set: purified protein. Type of data set: biochemical, Cupriavidus necator. The conditions noted are these: AcAcCoA 2 mM, MOPS 50 mM, NaCl 5 mM, MgCl2 5 mM, pH 7.0, 30 °C, apparent kcat, varied: cofactor.

Substrate in data set [7]: NC(=O)C1=CN([C@@H]2O[C@H](COP(=O)(O)OP(=O)(O)OC[C@H]3O[C@@H](n4cnc5c(N)ncnc54)[C@H](OP(=O)(O)O)[C@@H]3O)[C@@H](O)[C@H]2O)C=CC1
Put plainly: purified protein. Type of data set: biochemical, Cupriavidus necator. The conditions noted are these: AcAcCoA 2 mM, MOPS 50 mM, NaCl 5 mM, MgCl2 5 mM, pH 7.0, 30 °C, apparent kcat, varied: cofactor.

T1 sequence (P14697 whole entry G33A/N37E/S38F/R40K/R41P/E46K, form open): as the sequence (P14697 whole entry N37E/S38F/R40K/R41G, form open) above, with G33A, G41P, E46K counted along it
T2 sequence (P14697 whole entry N37E/S38A/R40K/R41P, form open): as the sequence (P14697 whole entry N37E/S38F/R40K/R41G, form open) above, with F38A, G41P counted along it

Turning to `CC(=O)CC(=O)SCCNC(=O)CCNC(=O)[C@H](O)C(C)(C)COP(=O)(O)OP(=O)(O)OC[C@H]1O[C@@H](n2cnc3c(N)ncnc32)[C@H](O)[C@@H]1OP(=O)(O)O` [AcAcCoA], the Km in data set [1] (NADH 1 mM, substrate inhibition model with KiS = KM) is 50 µM. In data set [1] (substrate inhibition, second site, NADPH 1 mM), the NADPH was 324 [195–465] µM.

Consider `NC(=O)C1=CN([C@@H]2O[C@H](COP(=O)(O)OP(=O)(O)OC[C@H]3O[C@@H](n4cnc5c(N)ncnc54)[C@H](OP(=O)(O)O)[C@@H]3O)[C@@H](O)[C@H]2O)C=CC1` [NADPH], for which the Km in data set [2] amounted to 1750 µM; in data set [3], 1120 µM; in data set [4], 120 µM; in data set [5], 2790 µM.

For the molecule `NC(=O)C1=CN([C@@H]2O[C@H](COP(=O)(O)OP(=O)(O)OC[C@H]3O[C@@H](n4cnc5c(N)ncnc54)[C@H](O)[C@@H]3O)[C@@H](O)[C@H]2O)C=CC1` [NADH], the Km in data set [2] is 886 µM; in data set [3] it was 140 µM; in data set [4], 618 µM; in data set [5], 43 µM.

B1: AAR^Cn1 (acetoacetyl-CoA reductase encoded by phaB1) (Cupriavidus necator H16) (protein)
chain: MTQRIAYVTGGMGGIGTAICQRLAKDGFRVVAGCGPNSPRREKWLEQQKALGFDFIASEGNVADWDSTKTAFDKVKSEVGEVDVLINNAGITRDVVFRKMTRADWDAVIDTNLTSLFNVTKQVIDGMADRGWGRIVNISSVNGQKGQFGQTNYSTAKAGLHGFTMALAQEVATKGVTVNTVSPGYIATDMVKAIRQDVLDKIVATIPVKRLGLPEEIASICAWLSSEESGFSTGADFSLNGGLHMG
notes: recombinant, expressed in E. coli BL21(DE3), purified by IMAC
As a reminder, the kcat is the maximal rate divided by the concentration of active sites. As usually defined, the kcat/Km is the turnover number divided by the Michaelis constant. For the molecule B1, in data set [6], the Km is 819 [688–975] µM, the kcat came to 10.3 s⁻¹ and the kcat/Km came to 13000 M⁻¹ s⁻¹. In data set [7], the Km was 44 [40–49] µM, the kcat is 5.2 s⁻¹ and the kcat/Km amounted to 118000 M⁻¹ s⁻¹.

Source of the values: paper PMC8904767, “Engineering an acetoacetyl-CoA reductase from Cupriavidus necator toward NADH preference under physiological conditions” (Scientific Reports, 2022).
